The target of data set [1] is T1, MtbCBS (Mycobacterium tuberculosis cystathionine β-synthase) (Mycobacterium tuberculosis, UniProt P9WP51).
T1 sequence (P9WP51 1-464): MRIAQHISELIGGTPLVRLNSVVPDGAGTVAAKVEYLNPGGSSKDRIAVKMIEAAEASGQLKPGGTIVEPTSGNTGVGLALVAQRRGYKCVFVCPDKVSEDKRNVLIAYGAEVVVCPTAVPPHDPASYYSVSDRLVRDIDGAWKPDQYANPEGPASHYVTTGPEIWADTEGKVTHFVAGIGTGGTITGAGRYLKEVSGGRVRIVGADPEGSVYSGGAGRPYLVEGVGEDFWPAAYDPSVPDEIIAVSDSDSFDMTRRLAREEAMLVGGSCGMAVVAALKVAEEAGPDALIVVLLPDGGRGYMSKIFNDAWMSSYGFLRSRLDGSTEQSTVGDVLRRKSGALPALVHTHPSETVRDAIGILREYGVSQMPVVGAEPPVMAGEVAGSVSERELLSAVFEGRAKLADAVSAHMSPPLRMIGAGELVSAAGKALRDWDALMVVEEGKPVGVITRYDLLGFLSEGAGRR
Briefly: fluorescence of PLP aldimine. It counts as biochemical.

Substrate in the data set “purified protein”: N[C@@H](CS)C(=O)O
Briefly: purified protein. The note with it: pH 7.5; 25.0 °C.

The values that follow come from paper doi:10.1101/2025.07.03.662948v1 (biorxiv, 2025).

As usually defined, the IC50 is the concentration that inhibits the measured activity by half. Low values mean inhibition by little substance, high ones a need for much substance. For the molecule `NOCC(=O)O` [AOAA], in data set [1], the IC50 was approximately 100 µM.

B1: MtbCBS (Mycobacterium tuberculosis cystathionine β-synthase) (Mycobacterium tuberculosis H37Rv) (protein)
chain: T1 sequence (P9WP51 1-464)
Broadly, the Km is the concentration of substrate that gives half-maximal velocity. In the case of B1, the Michaelis-Menten constant (Km) in the data set “purified protein” came to 15.47 mM.
